PubChem BioAssay (NCI)
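Assay format: 96-well plates, 48-hour exposure. GI50 marks 50% less growth. The concentration for full growth arrest is given as TGI.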

What was measured:
Assay in all cases: inhibition of tumour cell growth, NCI panel, 48 h
[1] = system: UACC-257 melanoma
[2] = system: IGROV1 ovarian
[3] = system: SK-MEL-2 melanoma
[4] = system: MALME-3M melanoma
[5] = system: HOP-92 NSCLC
[6] = system: KM20L2 colon
[7] = system: SK-MEL-5 melanoma
[8] = system: RXF 393 renal
[9] = system: LOX IMVI melanoma
[10] = system: MOLT-4 leukemia
[11] = system: SN12C renal
[12] = system: TK-10 renal
[13] = system: U251 CNS
[14] = system: SF-295 CNS
[15] = system: A498 renal
[16] = system: OVCAR-8 ovarian
[17] = system: SF-268 CNS
[18] = system: HL-60(TB) leukemia
[19] = system: K-562 leukemia
[20] = system: UACC-62 melanoma
[21] = system: SF-539 CNS
[22] = system: HT29 colon
[23] = system: NCI-H23 lung
[24] = system: RPMI-8226 leukemia
[25] = system: SK-OV-3 ovarian
[26] = system: OVCAR-5 ovarian
[27] = system: 786-0 renal
[28] = system: COLO 205 colon
[29] = system: NCI-H460 lung
[30] = system: KM12 colon
[31] = system: NCI-H522 lung
[32] = system: SNB-75 CNS
[33] = system: M14 melanoma
[34] = system: OVCAR-4 ovarian
[35] = system: SNB-19 CNS
[36] = system: CAKI-1 renal
[37] = system: EKVX NSCLC
[38] = system: HOP-62 NSCLC
[39] = system: HCT-15 colon
[40] = system: SW-620 colon
[41] = system: OVCAR-3 ovarian
[42] = system: NCI-H226 lung
[43] = system: A549 NSCLC
[44] = system: HCT-116 colon
[45] = system: UO-31 renal

With CC(=O)[C-](C(C)=O)c1ccccc1.CC(=O)[C-](C(C)=O)c1ccccc1.CC(=O)[C-](C(C)=O)c1ccccc1.[Cl-].[Zr+4] the GI50 [1] was > 100 µM, the TGI [1] was > 100 µM and the GI50 [2] was > 100 µM. The TGI [2] was > 100 µM, the GI50 [3] was > 100 µM and the TGI [3] was > 100 µM. The GI50 [4] was > 100 µM, the TGI [4] was > 100 µM and the GI50 [5] was 44.5 µM. For the same compound, the TGI [5] was > 100 µM, the GI50 [6] was > 100 µM and the TGI [6] was > 100 µM. For the same compound, the GI50 [7] was > 100 µM, the TGI [7] was > 100 µM and the GI50 [8] was 28.1 µM. For the same compound, the TGI [8] was 98.3 µM, the GI50 [9] was > 100 µM and the TGI [9] was > 100 µM. For the same compound, the GI50 [10] was > 100 µM, the TGI [10] was > 100 µM and the GI50 [11] was > 100 µM. For the same compound, the TGI [11] was > 100 µM, the GI50 [12] was > 100 µM and the TGI [12] was > 100 µM. The GI50 [13] was 58 µM, the TGI [13] was > 100 µM and the GI50 [14] was > 100 µM. The TGI [14] was > 100 µM, the GI50 [15] was > 100 µM and the TGI [15] was > 100 µM. For the same compound, the GI50 [16] was 57.5 µM, the TGI [16] was > 100 µM and the GI50 [17] was 61.7 µM. For the same compound, the TGI [17] was > 100 µM, the GI50 [18] was > 100 µM and the TGI [18] was > 100 µM. For the same compound, the GI50 [19] was > 100 µM, the TGI [19] was > 100 µM and the GI50 [20] was > 100 µM. For the same compound, the TGI [20] was > 100 µM, the GI50 [21] was 86.7 µM and the TGI [21] was > 100 µM. For the same compound, the GI50 [22] was > 100 µM, the TGI [22] was > 100 µM and the GI50 [23] was > 100 µM. The TGI [23] was > 100 µM, the GI50 [24] was > 100 µM and the TGI [24] was > 100 µM. For the same compound, the GI50 [25] was > 100 µM, the TGI [25] was > 100 µM and the GI50 [26] was > 100 µM. For the same compound, the TGI [26] was > 100 µM, the GI50 [27] was 38.7 µM and the TGI [27] was > 100 µM. The GI50 [28] was > 100 µM, the TGI [28] was > 100 µM and the GI50 [29] was > 100 µM. For the same compound, the TGI [29] was > 100 µM, the GI50 [30] was > 100 µM and the TGI [30] was > 100 µM. For the same compound, the GI50 [31] was > 100 µM, the TGI [31] was > 100 µM and the GI50 [32] was 33 µM. For the same compound, the TGI [32] was 83.9 µM, the GI50 [33] was > 100 µM and the TGI [33] was > 100 µM. For the same compound, the GI50 [34] was > 100 µM, the TGI [34] was > 100 µM and the GI50 [35] was 82.9 µM. For the same compound, the TGI [35] was > 100 µM, the GI50 [36] was > 100 µM and the TGI [36] was > 100 µM. For the same compound, the GI50 [37] was > 100 µM, the TGI [37] was > 100 µM and the GI50 [38] was > 100 µM. For the same compound, the TGI [38] was > 100 µM, the GI50 [39] was > 100 µM and the TGI [39] was > 100 µM. The GI50 [40] was > 100 µM, the TGI [40] was > 100 µM and the GI50 [41] was > 100 µM. For the same compound, the TGI [41] was > 100 µM, the GI50 [42] was > 100 µM and the TGI [42] was > 100 µM. The GI50 [43] was > 100 µM, the TGI [43] was > 100 µM and the GI50 [44] was > 100 µM. The TGI [44] was > 100 µM, the GI50 [45] was > 100 µM and the TGI [45] was > 100 µM.
